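Compound exposure: 48 hours, 5 concentrations, 96-well plates. GI50 = concentration required for 50% inhibition of growth.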 Calls of active or inactive are those of the source. Rule as the data show it: active = GI50 up to about 1.1 µM and inactive = higher.
Assays:
Assay in all cases: NCI anticancer screen, dose series, 48 h
DMS-114 = system: DMS-114
HOP-18 = system: HOP-18
KM-20L2 = system: KM-20L2
LXFL 529 = system: LXFL 529
M19-MEL = system: M19-MEL
RXF 631 = system: RXF 631
SNB-78 = system: SNB-78
XF498 = system: XF498
T47D = system: T47D

Measured: GI50

CCOC(OC1=CCCC1)C(C)[Se]c1ccccc1 (stereo unspecified)
inactive: DMS-114 6.81 µM | HOP-18 28.2 µM | KM-20L2 29.4 µM | LXFL 529 35.7 µM | M19-MEL 24.4 µM | RXF 631 16.5 µM | SNB-78 > 100 µM | XF498 20.4 µM

CCN(CC)CCCNc1ccc2nnn3c4ccc(O)cc4c(=O)c1c23
inactive: DMS-114 11.7 µM | HOP-18 14.3 µM | KM-20L2 5.3 µM | LXFL 529 7.67 µM | M19-MEL 13.8 µM | RXF 631 1.88 µM | SNB-78 16.4 µM | T47D 22.3 µM | XF498 15.5 µM

CCOC(=O)NC(=O)c1cn(CCCCCCCCCCC(=O)N2CCN(CCn3cc(C(=O)NC(=O)OCC)c(=O)[nH]c3=O)CC2)c(=O)[nH]c1=O
inactive: DMS-114 > 100 µM | HOP-18 > 100 µM | KM-20L2 > 100 µM | LXFL 529 > 100 µM | M19-MEL > 100 µM | RXF 631 > 100 µM | SNB-78 > 100 µM | XF498 > 100 µM

CC(=O)O/N=C/c1ncccc1OC(C)=O
inactive: DMS-114 > 100 µM | HOP-18 > 100 µM | KM-20L2 > 100 µM | LXFL 529 > 100 µM | M19-MEL > 100 µM | RXF 631 > 100 µM | XF498 > 100 µM

Cc1ccccc1-c1cc(=O)c2cc(C)c(C)c(C(=O)O)c2o1
inactive: DMS-114 > 100 µM | HOP-18 > 100 µM | KM-20L2 > 100 µM | LXFL 529 > 100 µM | M19-MEL > 100 µM | RXF 631 > 100 µM | SNB-78 > 100 µM | XF498 71.1 µM

O=C1CC2Sc3ccccc3N=C2N1c1ccc(Cl)cc1Cl (stereo unspecified)
inactive: DMS-114 33 µM | HOP-18 > 100 µM | KM-20L2 > 100 µM | LXFL 529 84.9 µM | M19-MEL 50 µM | RXF 631 65.3 µM | SNB-78 65.8 µM | XF498 > 100 µM

COc1cc2nc(Sc3c([N+](=O)[O-])ncn3C)[nH]c2cc1OC
inactive: DMS-114 11.6 µM | HOP-18 > 100 µM | KM-20L2 33.6 µM | LXFL 529 12.4 µM | M19-MEL 33.1 µM | RXF 631 1.74 µM | SNB-78 34.8 µM | XF498 11 µM

From ChEMBL document CHEMBL1201862, “PubChem BioAssay data set” (2004)
